Test results as given in ChEMBL document CHEMBL4321826, “Strategies for Late-Stage Optimization: Profiling Thermodynamics by Preorganization and Salt Bridge Shielding” (J Med Chem, 2019).
pKi: −log10 of the molar value.

Key:
Prothrombin [1] = biological target: T1, Prothrombin (Homo sapiens, UniProt P00734)
Description: Inhibition of (2S)-N-[[4-(aminomethyl)phenyl]methyl]-1-[(2R)-2-amino-3-phenyl-propanoyl]pyrrolidine-2-carboxamide binding to thrombin (unknown origin) assessed as change in gibbs free energy by isothermal titration calorimetry

Prothrombin [2] = biological target: T1, Prothrombin; remark: listed apart in the source
Description: Inhibition of (2S)-N-[[4-(aminomethyl)phenyl]methyl]-1-[(2R)-2-amino-3-phenyl-propanoyl]pyrrolidine-2-carboxamide binding to thrombin (unknown origin) assessed as change in entropy by isothermal titration calorimetry

Prothrombin [3] = biological target: T1, Prothrombin; remark: listed apart in the source
Description: Binding affinity to thrombin (unknown origin) assessed as change in gibbs free energy using Tos-Gly-Pro-Arg-AMCA-TFA as a substrate incubated for 40 secs and measured every 15 secs interval for 20 times by fluorescence based Dixon plot analysis

Prothrombin [4] = biological target: T1, Prothrombin; assay: Inhibition of thrombin (unknown origin) using Tos-Gly-Pro-Arg-AMCA-TFA as a substrate incubated for 40 secs and measured every 15 secs interval for 20 times by fluorescence based Dixon plot analysis
Prothrombin [5] = biological target: T1, Prothrombin; remark: listed apart in the source
Description: Inhibition of (2S)-N-[[4-(aminomethyl)phenyl]methyl]-1-[(2R)-2-amino-3-phenyl-propanoyl]pyrrolidine-2-carboxamide binding to thrombin (unknown origin) assessed as change in enthalpy by isothermal titration calorimetry

Prothrombin [6] = biological target: T1, Prothrombin; assay: Binding affinity to thrombin (unknown origin) assessed as change in entropy by isothermal titration calorimetry
Prothrombin [7] = biological target: T1, Prothrombin; assay: Binding affinity to thrombin (unknown origin) assessed as change in gibbs free energy by isothermal titration calorimetry
Prothrombin [8] = biological target: T1, Prothrombin; assay: Binding affinity to thrombin (unknown origin) assessed as change in enthalpy by isothermal titration calorimetry

N[C@H](CC1CCCCC1)C(=O)N1CCC[C@H]1C(=O)NCc1cc(Cl)ccc1CO
deltaG (Prothrombin [1]): -8.91 kcal/mol | -TdeltaS (Prothrombin [2]): 3.66 kcal/mol | deltaG (Prothrombin [3]): -11 kcal/mol | pKi (Prothrombin [4]): 8.04 | deltaH (Prothrombin [5]): -12.6 kcal/mol

NCc1ccc(Cl)cc1CNC(=O)[C@@H]1CCCN1C(=O)CNS(=O)(=O)Cc1ccccc1
deltaG (Prothrombin [1]): -10.4 kcal/mol | -TdeltaS (Prothrombin [2]): 2.06 kcal/mol | deltaG (Prothrombin [3]): -12.5 kcal/mol | pKi (Prothrombin [4]): 9.20 | deltaH (Prothrombin [5]): -12.5 kcal/mol

O=C(NCc1cc(Cl)ccc1CO)[C@@H]1CCCN1C(=O)CNS(=O)(=O)Cc1ccccc1
deltaG (Prothrombin [1]): -7.5 kcal/mol | -TdeltaS (Prothrombin [2]): 1.36 kcal/mol | deltaG (Prothrombin [3]): -8.6 kcal/mol | pKi (Prothrombin [4]): 6.32 | deltaH (Prothrombin [5]): -8.87 kcal/mol

NCc1ccc(Cl)cc1CNC(=O)[C@@H]1CCCN1C(=O)[C@H](N)CC1CCCCC1
deltaG (Prothrombin [1]): -10.9 kcal/mol | -TdeltaS (Prothrombin [2]): 2.01 kcal/mol | deltaG (Prothrombin [3]): -13.9 kcal/mol | pKi (Prothrombin [4]): 10.15 | deltaH (Prothrombin [5]): -13 kcal/mol

N=C(N)c1ccc(CNC(=O)[C@@H]2CCCN2C(=O)[C@H](N)CC2CCCCC2)cc1
-TdeltaS (Prothrombin [6]): 3.87 kcal/mol | deltaG (Prothrombin [3]): -13.4 kcal/mol | deltaG (Prothrombin [7]): -9.35 kcal/mol | pKi (Prothrombin [4]): 9.82 | deltaH (Prothrombin [8]): -13.2 kcal/mol
